This passage reports logP results from the OPERA property sets (Mansouri et al. 2018).

Where a SMILES comes first, the peptide text is derived from it.

With `CC(C)NC(=NC#N)NS(=O)(=O)c1cnccc1Nc1cccc(I)c1`, the logP – broadly, the decadic logarithm of the partition coefficient of the neutral form, usually between octanol and water – is 2.51.

In turn, `Cc1cccc(C)c1CCN` showed a log partition coefficient (logP) of 2.38.

`Cc1csc(Cl)c1NC1=NCCN1`: the log partition coefficient (logP) amounted to 1.18.

The compound `Cn1c([N+](=O)[O-])cnc1C=NNC(N)=S` displayed a lipophilicity (logP) of 0.65.

The compound `COc1cc(S(C)=O)ccc1-c1cn2cc(N)cnc2n1` (stereo not drawn) registered a lipophilicity (logP) of 0.37.

Compound `CC(C)=CCNc1ncnc2nc[nH]c12` displayed a logP of 2.2.

`CCOCCCNc1ncnc2c1ncn2C1OC(CO)C(O)C1O` (stereo not drawn) yielded a logP of 0.22.

The compound `COc1cc(OC)c2c(c1)OC(c1ccc(OC)c(OC)c1)C(O)C2` (stereo not drawn) displayed a log partition coefficient (logP) of 3.1.

`O=C(O)CCCCON=C(c1ccccc1)c1ncccn1` had a log partition coefficient (logP) of 1.94.

For the compound `Cc1coc2nc3oc(=O)cc(C)c3cc12`, the logP came to 1.64.

`Clc1cccc(N2CCN(CCn3nnc4ccccc43)CC2)c1`: the logP turned out to be 3.45.

The compound `Nc1nc(N)c2c(N3CCCCC3)cccc2n1` came in with a logP of 2.66.

For the compound `NC(=O)c1cccc(Cn2cnc3ccccc32)c1`, the log partition coefficient (logP) was determined as 1.7.

The compound `O=c1ccc(/C=C/c2ccc(-n3cnc4c3CCCC4)cc2)n[nH]1` gave a log partition coefficient (logP) of 2.47.

For `CC(C)Nc1nc(=O)n(C(C)C)c(=O)n1C`, the logP was 0.53.

With `O=C1c2cc([N+](=O)[O-])ccc2OCN1CCO[N+](=O)[O-]`, the lipophilicity (logP) was found to be 1.66.

The compound `CC(C)CCC(=O)CC1c2ccccc2C(=O)N1c1ccc2ccc(Cl)nc2n1` (stereo not drawn) registered a logP of 4.8.

Compound `CCc1cccc(COC(=O)C2C(C=C(C)C(=O)OC)C2(C)C)c1` (stereo not drawn) returned a logP of 5.42.

For `Cc1cc2c(o1)c(C)cc1c(C)cc(=O)n(C)c12`, the log partition coefficient (logP) was 3.43.

In the case of `O=S1CCCC1`, the log partition coefficient (logP) is -0.96.

As for `Cc1ccc2c(c1)OCN(CCO[N+](=O)[O-])C2=O`, the lipophilicity (logP) came out at 2.44.

For `CCC(C)C(N)C(=O)NC(C(=O)NC(C(=O)NC(C(=O)NCC(=O)O)C(C)CC)C(C)CC)C(C)CC` (stereo not drawn) (H-IIIIG-OH; configuration not given here), the log partition coefficient (logP) was -0.97.

`N#Cc1cccc(Cn2ccnc2)c1` gave a logP of 1.01.

`Clc1cc2c(cc1Cl)Oc1c(Cl)c(Cl)cc(Cl)c1O2` gave a logP of 6.2.

On to `CCNCc1ccc(C)cc1`, for which the lipophilicity (logP) came out at 2.38.

As for `OCCCCCCCNc1[nH]cnc2ncnc1-2`, the logP came out at 1.73.

The compound `Cc1oc2cc(C)c3ccc(=O)oc3c2c1C` had a log partition coefficient (logP) of 3.36.

`COC(=O)Nc1c(C)cccc1C` displayed a logP of 1.69.

On to `CC(C)(C)NCC(O)COc1cccc2c1CCN(C=O)C2` (stereo not drawn), for which the logP stood at 1.3.

The compound `C=CCNC(=O)N(CCCCC(NC(C)=O)C(=O)NCc1ccccc1)Cc1ccccc1` (stereo not drawn) registered a logP of 1.98.

With `CC(=O)NC(CCCNC(=O)N(CCCl)N=O)C(=O)NCc1ccccc1` (stereo not drawn), the lipophilicity (logP) was 1.33.

The compound `CCCC(=NOCC)C1=C(O)CC2(CCCC3CCCCC32)OC1=O` (stereo not drawn) had a lipophilicity (logP) of 5.

The compound `CC(=O)OCCOC(=O)C(C)c1cccc(C(=O)c2ccccc2)c1` (stereo not drawn) returned a lipophilicity (logP) of 3.1.

`CCCc1nc(NC(=O)c2ccccc2)nc(N2CCOCC2)n1` displayed a lipophilicity (logP) of 1.61.

`O=C1CC=C2C3CC4N(CCC45c4ccccc4N1C25)C/C3=C\CO` (stereo not drawn) had a logP of 1.37.

For the compound `Cn1cnc([N+](=O)[O-])c1S(N)(=O)=O`, the logP was -0.74.

As for `c1ccc2c(c1)OCC(Cc1ncc[nH]1)O2` (stereo not drawn), the lipophilicity (logP) was found to be 1.92.

In the case of `CCCOc1ccc(CNc2[nH]cnc3ncnc2-3)cc1`, the logP amounted to 3.15.

Take `Cn1cc(-c2ccc(Cl)cc2)c(N2CCOCC2)c1`: the lipophilicity (logP) was found to be 4.2.

In turn, `Cc1cccc(C)c1Cc1cn[nH]c1` displayed a lipophilicity (logP) of 3.6.

For the compound `CCCc1nc(N)nc(N2CCOCC2)n1`, the logP amounted to 0.7.

`Cc1nc2c3c(c(C(=O)N(C)C)cn2c1C)CCC(c1ccccc1)O3` (stereo not drawn) gave a logP of 3.3.

Consider `COc1ccc(C2Cc3cc(OC(=O)C(C)(C)C)ccc3N(CCN(C)C)C(=O)C2OC(C)=O)cc1` (stereo not drawn), for which the logP was determined as 4.9.

In turn, `COc1ccc(C(C)=O)c(O)c1` had a log partition coefficient (logP) of 1.98.

Take `CNC(=S)OCCn1c([N+](=O)[O-])cnc1C`: the lipophilicity (logP) is 1.12.

Compound `Cc1cc(C)cc(Cc2c[nH]cn2)c1` displayed a logP of 2.52.

On to `CC(C)CC(NC(=O)CN)C(=O)NC(CC(C)C)C(=O)NCC(=O)NC(Cc1ccccc1)C(=O)O` (stereo not drawn) (H-GLLGF-OH; configuration not given here), for which the lipophilicity (logP) is -0.18.

On to `O=C1c2ccccc2-c2nnc(-c3ccccc3O)cc21`, for which the log partition coefficient (logP) stood at 3.15.

As to `Nc1ccc(S(=O)(=O)Nc2cc(Br)cc3[nH]ccc23)cc1`, the logP came out at 2.77.

For the compound `OCC1OC(n2cnc3c(NCc4ccccc4)ncnc32)C(O)C1O` (stereo not drawn), the logP was found to be 1.23.

Turning to `CCCNc1[nH]cnc2ncnc1-2`, the logP was determined as 1.44.

In turn, `O=c1ccc(/C=C/c2ccc(-n3ccnc3)cc2)n[nH]1` had a lipophilicity (logP) of 1.21.

The compound `CON(C)C(=O)Nc1ccc(C2CCCCC2)cc1` had a logP of 4.08.

Compound `CC(CC(=O)c1ccc(-c2ccc(F)cc2F)cc1)C(=O)O` (stereo not drawn) displayed a logP of 3.78.

For `Nc1nc(N)c2c(Oc3ccccc3)cccc2n1`, the log partition coefficient (logP) worked out at 2.78.

With `CSCCC(N)C(=O)NC(C(=O)O)C(C)C` (stereo not drawn) (H-Met-Val-OH; configuration not given here), the lipophilicity (logP) was -2.53.

Take `CCC(C)C(NC(=O)C(N)CC(C)C)C(=O)NC(C(=O)O)C(C)O` (stereo not drawn) (H-Leu-Ile-Thr-OH; configuration not given here): the logP was -2.14.

Consider `Clc1cccc(N2CCN(CCn3nc4ccccc4n3)CC2)c1`, for which the logP came out at 4.1.

In turn, `CCCCNC1CCc2c(OC)cccc2C1C` (stereo not drawn) gave a log partition coefficient (logP) of 3.73.

`N#Cc1cccc(Cn2cccn2)c1` registered a logP of 1.74.

For `C=C(Br)CON=C(C)c1cccc(Oc2nc(OC)cc(OC)n2)c1C(=O)OC`, the logP turned out to be 3.73.

Turning to `CCN(CC)c1ccc(-n2c(C(F)(F)F)nn(C)c2=S)cc1`, the logP was 3.79.

`COc1ccc(CCNCC(O)COc2ccc(CCc3nc(Br)c[nH]3)cc2)cc1OC` (stereo not drawn) registered a logP of 3.

In turn, `CC(C)NC(CO)C(O)c1ccccc1` (stereo not drawn) yielded a lipophilicity (logP) of 1.19.

The compound `COP(=O)(OC)Oc1c(Cl)cc(C)cc1Cl` showed a log partition coefficient (logP) of 2.66.

The compound `CCCNC(C)C(=O)Nc1c(C)csc1C(=O)OC` (stereo not drawn) registered a logP of 1.89.

For the compound `Clc1c(Br)cccc1N=C1NCCN1`, the log partition coefficient (logP) was 1.82.

In the case of `O=C1C=C(N2CCCC2)C(=O)N1c1ccc(F)cc1`, the logP was determined as 2.3.

Compound `Cc1ccc(Nc2ccncc2S(=O)(=O)NC(=NC#N)NC(C)C)cc1` displayed a logP of 1.91.

With `Cc1ccc(CO)c(C=NNC(=O)c2ccco2)c1O`, the logP came to 2.67.

Take `CCCc1ccccc1CNc1[nH]cnc2ncnc1-2`: the logP was 3.47.

In turn, `COC1CC(OC2C(C)OC(OC3CCC4(C)C(CCC5C4CC(O)C4(C)C(C6=CC(=O)OC6)CCC54O)C3)CC2OC)OC(C)C1OC1CC(O)C(O)C(C)O1` (stereo not drawn) gave a logP of 2.14.

`CC(C)(C)[N+]([O-])=Cc1cccc(O)c1`: the logP turned out to be 1.

For the compound `COC(=O)CCSc1ccc2nc(-c3ccc(N(C)C)cc3)cn2c1`, the lipophilicity (logP) was determined as 3.9.

As to `CCc1ccccc1CNc1[nH]cnc2ncnc1-2`, the logP is 2.92.

In the case of `CC(C)CC(N)C(=O)NC(CC(C)C)C(=O)NC(CC(C)C)C(=O)O` (stereo not drawn) (H-Leu-Leu-Leu-OH; configuration not given here), the lipophilicity (logP) was -0.94.

As to `CCCCNC(C)CO` (stereo not drawn), the logP is 1.19.

`O=C1C=C(N2CCCC2)CN1c1ccc(Cl)cc1` gave a lipophilicity (logP) of 2.6.
